{"source": "patent US20140328795A1", "about": "“VIRUCIDAL SMALL MOLECULE AND USES THEREOF” (The Texas A&M University System, priority 2012, published 2014)", "format_in_all_cases": "cell-based", "key": {"HSV-2 (333)": {"system": "HSV-2 (333)", "conditions": "2 μM and 0.2 μM PD", "procedure": "(§1) FIGS. 16A-16B depict effectiveness of PD against HSV. PD blocks HSV infection. Vero cells were seeded in a 24-well plate and infected with HSV-1 (Syn 17) or HSV-2 (333) (FIG. 16A). PD (200 nM) or control DMSO (0.01%) was added immediately to the target cells after viral inoculation. Two days later, the cells were harvested, stained with antibody against HSV glycoprotein gD and analyzed by flow cytometry. Error bars represent standard deviation of triplicate samples. Results are representative of two independent experiments. PD Destabilizes HSV particles (FIG. 16B). Concentrated HSV (˜20 μg/mL) was incubated with DMSO (0.01%) or PD (200 nM) for 30 min at 37° C. and the mixture was immediately loaded over a 20-70% sucrose density gradient. The amount of HSV glycoprotein gpB in each fraction was analyzed by ELISA. The sucrose gradient density of each fraction was determined by measuring the refractive index. Results are representative of 2 independent experiments. Error bars represent the standard deviation of triplicate samples.\n(§2) Vero cells (2×10^5 cells/well) were seeded in a 24 well plate. The next day, these cells were infected with increasing titers (MOI range 0.0001-1) of HSV-1 (Syn 17) or HSV-2 (333) in the presence of PD (2 μM and 200 nM) or control DMSO (0.01%) prepared in DMEM in the absence of serum. Two days post-inoculation, cells were harvested, fixed with 5% paraformaldehyde (PFA) in PBS, stained with antibodies against HSV glycoprotein gD (Novus biological, Littleton, Colo.) and analyzed by flow cytometry.\n(§3) Applicants investigated the ability of PD to inactivate HSV-1 and -2. Vero cells were infected with HSV-1 and HSV-2 in the presence of PD (2 μM and 0.2 μM) or DMSO (0.01%). These concentrations were selected based on their closeness to the in vitro IC50 of PD against HIV-1. Infection was quantified by the cell surface expression of HSV gD. […] Similar results were obtained for both concentrations and the data from the lowest concentration is presented."}, "HSV-1 (Syn 17)": {"system": "HSV-1 (Syn 17)", "conditions": "2 μM and 0.2 μM PD", "procedure": "as §1, §2, §3"}, "[1]": {"system": "commensal Lactobacillus species", "test": "Lactobacillus toxicity testing, all strains together", "procedure": "(§4) Reference strains of L. crispatus and L. jensenii were obtained from the ATCC (Manassas, Va.) and cultured on Columbia blood agar plates at 35° C. in air enriched with 6% CO2. Bacterial suspensions were prepared in saline or ACES buffer to a density of 2 McFarland units (˜2×10^8 bacteria/mL), and exposed to PD (300 μM) or DMSO (10%) for 30 minutes at 37° C. After incubation, the cells were serially diluted in ACES buffer, pH 7.0 (Sigma-Aldrich, St. Louis, Mo.) and plated on blood agar plates to quantify colony forming unit per mL (CFU/mL)\n(§5) Different bacterial strains were incubated with 300 μM PD or solvent DMSO-containing control media at 37° C. for 30 min and plated on blood agar plates to estimate their corresponding colony forming units per ml (CFU/ml). Less than 1 log difference between control and test CFU is considered non-toxic17."}, "SIV": {"system": "SIV", "test": "SIV infectivity assay in TZM-bl cells (β-galactosidase)", "conditions": "Simian immunodeficiency virus; for IC90: IC90 per footnote, read-out: IC50 (the source's name)"}, "DC-associated HIV-1": {"system": "DC-associated HIV-1", "conditions": "10 μM PD added to DC 2 h after virus, pseudotyped NL4.3ΔEnv-eGFP/gp160 Env virus, Jurkat T cells, 3 days"}, "Lactobacillus jensenii": {"system": "Lactobacillus jensenii", "test": "Lactobacillus toxicity testing (CFU)", "conditions": "37° C.", "procedure": "as §4, §5"}, "Lactobacillus crispatus": {"system": "Lactobacillus crispatus", "test": "Lactobacillus toxicity testing (CFU)", "conditions": "37° C.", "procedure": "as §4, §5"}, "[2]": {"conditions": "SIVsyk1.2, PD in DMEM with 10% fetal bovine serum"}}, "note": "Where two headings read alike, the source gives them in different places.", "data": [{"smiles": "N=C1Sc2ccccc2C2=NCCCN12", "note": "[PD, PD 404,182]", "values": [{"measurement": "effect on HSV-2 infection", "setting": "HSV-2 (333); MOI 1", "value": "partial protection"}, {"measurement": "effect on HSV-2 infection", "setting": "HSV-2 (333); MOI from 0.0001 to 0.1", "value": "inhibit both HSV-1 and HSV-2 infection"}, {"measurement": "effect on HSV-1 infection", "setting": "HSV-1 (Syn 17); MOI 1", "value": "partial protection"}, {"measurement": "effect on HSV-1 infection", "setting": "HSV-1 (Syn 17); MOI from 0.0001 to 0.1", "value": "inhibit both HSV-1 and HSV-2 infection"}, {"measurement": "effect on Lactobacillus strains", "setting": "[1]; 300 μM PD, 37° C., 30 min", "value": "no adverse effect"}, {"measurement": "CC50", "setting": "[1]; vaginal commensal bacteria Lactobacilli", "value": "> 300", "unit": "µM"}, {"measurement": "IC90", "setting": "SIV; SIVmoc251 32H, PD in DMEM with 10% fetal bovine serum", "value": 6.2, "unit": "µM"}, {"measurement": "IC50", "setting": "SIV; [2]", "value": 1800, "unit": "nM"}, {"measurement": "IC90", "setting": "SIV; [2]", "value": 5.4, "unit": "µM"}, {"measurement": "DC to T cell transmission of HIV-1", "setting": "DC-associated HIV-1", "value": "prevents subsequent T cell infection with the pseudotyped virus"}, {"measurement": "CFU of Lactobacillus treated with 300 μM PD", "setting": "Lactobacillus jensenii; Lactobacillus jensenii ATCC 25258, 30 min", "value": "7,533,333 CFU/ml"}, {"measurement": "CFU of Lactobacillus treated with 300 μM PD", "setting": "Lactobacillus jensenii; Lactobacillus jensenii LBP 28Ab, 30 min", "value": "10,033,333 CFU/ml"}, {"measurement": "Log(Control)-Log(PD)", "setting": "Lactobacillus jensenii; Lactobacillus jensenii LBP 28Ab, 300 μM PD, 30 min", "value": "−0.021"}, {"measurement": "CFU of Lactobacillus treated with 300 μM PD", "setting": "Lactobacillus crispatus; Lactobacillus crispatus ATCC 33197, 30 min", "value": "7,260,000 CFU/ml"}, {"measurement": "Log(Control)-Log(PD)", "setting": "Lactobacillus crispatus; Lactobacillus crispatus ATCC 33197, 300 μM PD, 30 min", "value": "−0.019"}]}]}
